Assay results as given in publication PMC10667816, “A Cell‐Penetrant Peptide Disrupting the Transcription Factor CP2c Complexes Induces Cancer‐Specific Synthetic Lethality” (Advanced Science, 2023).
Where no end group is shown, it is not given here.

What was measured:
[1] = system: murine erythroleukemia (MEL) cells; test: Erythroid differentiation of MEL cells; type: cell-based; conditions: HMBA‐induced MEL cells, supplementation to the culture
Procedure: Information of the cell lines is listed in Table S1 (Supporting Information), including their origin and culture conditions. All cell lines were cultured at 37 °C, 5% CO2 incubator. MDA‐MB‐231 (LM1), HepG2, Hep3B, and HCT116 cell lines were authenticated with short tandem repeat markers based on ATCC information. All cell lines tested negative for mycoplasma contamination. Transient downregulation of the gene of interest was conducted by siRNA transfection using Lipofectamine 2000 (Thermo Fisher, 11668019) according to the manufacturer's instructions. Information about siRNAs is provided in Table S2 (Supporting Information). Stable cell lines were established by transfecting cells using Effectene reagent (Qiagen, 301425), followed by selection of cell clones in the presence of 1 µg mL^−1 puromycin (Sigma–Aldrich, P8833). The establishment of cell lines was confirmed by WB or RT‐qPCR. For doxycycline‐inducible gene expression regulation, cell lines were incubated in the presence of 1 µg mL^−1 doxycycline (Sigma–Aldrich, D9891) for 2–3 days. To promote sphere formation of the cell lines, each well of the tissue culture dish was coated with 10% poly 2‐hydroxyethyl methacrylate (polyHEMA). An appropriate number of cells per well were seeded in serum‐free DMEM/F12 (HyClone, SH30023.01) supplemented with B27, 20 ng mL^−1 bFGF, and 20 ng mL^−1 EGF. For erythroid terminal differentiation experiments, differentiation was assessed by hemoglobin staining using a 0.2% (w/v) tetramethylbenzidine solution (Sigma–Aldrich, T0440) in 0.6% hydrogen peroxide, 3% acetic acid for 10 min in dark condition. Benzidine‐positive or negative cell numbers were counted under the inverted microscope BX50 (Olympus) at 200 × magnification. […] After each synchronization, cells were fixed at 4‐h intervals for 24 h with ACP52C treatment, and the cell cycle was analyzed by Propidium Iodide (PI) staining or intracellular protein was analyzed by immunofluorescence. […] This development period was repeated four times for one round, after which GI50 concentrations were re‐assessed in each resistant cell line. […]

Hep3B = Hep3B CDX mouse model; type: in vivo
Procedure: Animal experiments were conducted in accordance with ethical guidelines, and all protocols were approved by the Institutional Animal Care and Use Committee under Hanyang University (approval numbers, 2014‐0016A, 2018‐0049A, 2018‐0207A, and 2019‐0169A), Chung‐Ang University (approval number, 2015‐00022), Chungbuk University (approval number, CBNUA‐1072‐17‐02), and Konkuk University (approval number, KU17130). To establish xenograft mice models, Hep3B, A431, U343, and PC9 cells were subcutaneously injected into the flank of Balb/c nude mice. For the MDA‐MB‐231 (LM1) cell line, it was implanted into the mammary fat pad of immunodeficient mice (NPG mice). Once tumors were successfully established, the animals were randomly divided into a control (vehicle) group and an experimental (drug) group. When the tumor volume reached 100 cubic millimeters, either saline or an appropriate concentration of drugs was administrated into mice via tail vein every 3 or 5 days for appropriate duration. Tumor volume was calculated using the formula of length × width^2)/2. To generate an orthotopic liver cancer mice model, 75 mg kg^−1 (mpk) of DEN was intraperitoneally injected weekly for 3 weeks into C57BL/6 mice, followed by 100 mpk of DEN weekly for the subsequent 3 weeks. After 37 weeks of liver cancer induction, mice received either saline or an appropriate concentration of drugs via the tail vein every 5 days for the designated duration. The in vivo administration amount was determined based on the concentration of ACP52C confirmed at the cellular level, which was 2 µM. Assuming an average mouse weight of 30 grams and considering that ≈5.8% of body weight constitutes blood volume,^[ [49] ^] it was calculated that the blood concentration of ACP52C should be ten times the GI50 concentration in cell culture conditions. […] For ACP52C derivatives, the amount was adjusted to ensure a similar molar quantity of peptide injection, taking their molecular weights into account. For instance, in the case of ACP52CGK, ≈1.67 times the quantity was used compared to ACP52C to achieve an equivalent molar quantity. At the time of sacrifice, major organs and tumors were removed and weighed, and blood was extracted. For histological analysis, major organs and tumors of mice were immediately fixed in 10% formalin neutral buffer solution, dehydrated through a graded series of ethanol treatments, treated with xylene, paraffin embedded, and cut into 4 µm sections. Hematoxylin and eosin (H&E)‐stained tissue sections were analyzed and photographed, and the representative histological images were recorded. Liver nodules in the DEN orthotopic liver cancer model were estimated by measuring the ratio of tumor areas over entire liver tissues in the tissue section using an Image J (version 1.51) software at 40× magnification. Complete blood count (CBC) analysis was conducted using a Hematology analyzer (scil Vet ABC) from the extracted blood.

CP2c = target: T1, CP2c (Mus musculus, UniProt Q9ERA0); test: DNA‐IP assay of CP2c DNA binding; type: biochemical; conditions: 0–3 µM peptide, concentration‐dependent
T1 construct: extracts from iMEL cells (day 2); endogenous in cells; host or cells: nuclear extract of HMBA-induced MEL (iMEL) cells, day 2
Procedure: DNA‐IP assay was performed essentially as described previously.^[ [14] ^] Each of the oligonucleotides was mixed and annealed in the TEN buffer. For the radio‐labeling of the DNA probe, the annealed DNA was incubated with a mixture of dATP, dGTP, dTTP, [α^32P]‐dCTP, and Klenow enzyme in reaction buffer (5 mM NaCl, 1 mM Tris HCl, 1 mM MgCl2, and 0.1 mM DTT) for 30 min at 25 °C, and stopped by incubation with EDTA (10 mM final) for 20 min at 75 °C. The radio‐labeled DNA probe was purified by applying the reaction mixture to ProbeQuant G‐50 micro columns (GE healthcare, GE28‐9034‐08). Whole extracts prepared from transfecting 293T cells or purified GST fused CP2c proteins (wildtype and point mutants) were incubated with a [α^32P]‐labeled DNA probe in binding buffer (4% glycerol, 10 mM Tris‐HCl, pH 7.4, 1 mM DTT, 1 mM EDTA, and 0.1% NP‐40) for 15 min at room temperature. Then 0–3 µM of peptides (Pep #5, Pep #8, Pep #5‐1, Pep #5‐2, and Pep #5‐2C) were added to the DNA‐protein mixture, and the mixtures were incubated for 15 min at room temperature (peptide sequences are listed in Table S3, Supporting Information). For IP, precleared extracts were incubated overnight at 4 °C with 1 µg of the following primary antibodies (CP2c, CP2b, and PIAS1). […] The radioactivity of the eluted probe was measured by scintillation counting.

[2] = intravenous injection at three‐day intervals, Sorafenib orally once daily as positive control

T1 sequence (Q9ERA0 whole entry): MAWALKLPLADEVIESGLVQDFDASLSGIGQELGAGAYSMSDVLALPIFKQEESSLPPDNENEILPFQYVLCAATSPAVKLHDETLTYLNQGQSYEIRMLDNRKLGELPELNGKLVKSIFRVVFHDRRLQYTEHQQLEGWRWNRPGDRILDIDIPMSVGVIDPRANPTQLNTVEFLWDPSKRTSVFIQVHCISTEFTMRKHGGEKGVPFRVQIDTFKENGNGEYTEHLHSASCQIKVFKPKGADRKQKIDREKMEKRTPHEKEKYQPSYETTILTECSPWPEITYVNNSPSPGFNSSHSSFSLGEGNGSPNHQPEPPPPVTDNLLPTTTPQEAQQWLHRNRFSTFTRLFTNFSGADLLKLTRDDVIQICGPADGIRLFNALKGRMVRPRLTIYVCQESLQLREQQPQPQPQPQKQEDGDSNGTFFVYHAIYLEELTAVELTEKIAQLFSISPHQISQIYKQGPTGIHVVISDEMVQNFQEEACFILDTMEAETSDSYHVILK

| Substance | anti‐tumor activity (Hep3B; [2]) | further results |
| --- | --- | --- |
| Ac-HERRESNYPQRPCRGDKGPDC-NH2 [Pep #5C] |  | inhibition of erythroid differentiation [1]: efficiently inhibited erythroid differentiation |
| Ac-K(E-pal)K-GGNYPQRPCRGDKGPDC-NH2 [ACP52CG, palmitic acid linked to lysine at the N‐terminus of ACP52C] | decrease in anti‐tumor activity, resembling Sorafenib |  |
| Ac-K(EGFLG-pal)K-GGNYPQRPCRGDKGPDC-NH2 [ACP52CK, ACP52C with enzyme‐cleavable linker GFLG to palmitic acid] | activity similar to that of Sorafenib |  |
| Ac-NYPQRPGG-K(E-pal)-GGCRGDKGPDC-NH2 [ACP52GK, E‐pal attached via αE COO‐ to lysine between ACP52 and iRGD] | lower anti‐tumor activity compared to ACP52C |  |
| DHA-GGNYPQRPCRGDKGPDC-NH2 [DHA‐ACP52C, DHA, an unsaturated fatty acid, conjugated at the N‐terminus of ACP52C] | effectively demonstrated anti‐tumor activity | anti‐tumor activity (Hep3B; administered at five‐day intervals): noticeably higher activity than ACP52C |
| HERRES [Pep #5‐1] |  | inhibition of DNA binding activity of CP2c (CP2c): no activity |
